# Data as given in the supplement of paper PMC12317010.
# Where a name gives a salt, the structure may show the parent alone.
# Assay: collision cross section in nitrogen (drift tube, single-field); higher = larger gas-phase ion size
# [1] = ion type: [M-H], ion source: ESI, ion mode: Negative
# [2] = ion type: [M+H], ion source: APCI, ion mode: Positive
# [3] = ion type: [M+H], ion source: ESI, ion mode: Positive
# [4] = ion source: ESI, ion mode: Positive, ion type: [M]+ (permanent cation)
# [5] = ion type: [M+Na], ion source: ESI, ion mode: Positive
# [6] = ion type: [M+], ion source: APCI, ion mode: Positive
# [7] = ion source: APCI, ion mode: Positive, ion type: [M]+ (permanent cation)
# 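Also: chemical standards at 10 µM analysed by drift tube IMS-QTOF MS in about 3.95 torr nitrogen, mean of duplicate injections differing ≤1%, mass error below 10 ppm.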
Structure (SMILES),collision cross section in nitrogen [1],collision cross section in nitrogen [2],collision cross section in nitrogen [3],collision cross section in nitrogen [5],also measured
CON(C)C(=O)Nc1ccc(Br)c(Cl)c1 [Chlorbromuron],152.8 Å²,,,,
N#Cc1c(-c2ccc(Cl)cc2)[nH]c(C(F)(F)F)c1Br [Tralopyril],157.9 Å²,,,,
CCCCCCCCC(=O)O [Nonanoic acid],146.2 Å²,,,,
Cc1cc(SCc2sc(-c3ccc(C(F)(F)F)c(F)c3)nc2C)ccc1OCC(=O)O,199.5 Å²,194.4 Å²,194.2 Å²,,
C[N+](C)(C)Cc1ccccc1 [Benzyltrimethylammonium hydroxide],,,,,collision cross section in nitrogen [4]: 131.3 Å²
O=S(=O)(O)c1cc(O)c(O)c(S(=O)(=O)O)c1 [Tiron],145.8 Å²,,,,
NC(=O)OCC(COC(N)=O)c1ccccc1 [Felbamate],,,,159.6 Å²,
COP(=S)(OC)Oc1ccc(S(=O)(=O)N(C)C)cc1 [Famphur],,174 Å²,,173.8 Å²,
CCc1cccc(C)c1N(C(=O)CCl)C(C)COC (stereo not drawn) [Metolachlor],,158.9 Å²,159.8 Å²,172.6 Å²,
"Cc1cc(C)nc(N)n1 [2-Amino-4,6-dimethylpyrimidine]",,123.7 Å²,123 Å²,,
Cc1cc(C)c(C=C2C(=O)Nc3ccccc32)[nH]1 [SU-5416],158.4 Å²,153.9 Å²,154.2 Å²,,collision cross section in nitrogen [6]: 152.2 Å²
O=C(Nc1ccc2c(O)c(N=Nc3ccc(N=Nc4ccc(S(=O)(=O)O)cc4)cc3)c(S(=O)(=O)O)cc2c1)c1ccccc1 [C.I. Direct Red 81 disodium salt],283.1 Å²,,276.7 Å²,,
CC(=O)OCCN(CCOC(C)=O)c1ccc(N=Nc2ccc([N+](=O)[O-])cc2C#N)cc1 [Disperse Red 82],,213.1 Å²,213.3 Å²,201.3 Å²,
Cc1occc(=O)c1O [Maltol],,119.5 Å²,,,
O=C(Nc1ccccc1)c1cc([N+](=O)[O-])ccc1Cl [2-Chloro-5-nitro-N-phenylbenzamide],159.9 Å²,,,,
CCCCCCCCCCCCc1ccccc1O [n-Dodecylphenol],173.8 Å²,,,,
c1ccc(C[n+]2cccc3ccccc32)cc1 [1-Benzylquinolinium chloride],,,,,collision cross section in nitrogen [7]: 147.6 Å²; collision cross section in nitrogen [4]: 148 Å²
CCOC(=O)[C@@H](O)[C@H](O)C(=O)OCC [(-)-Diethyl-D-tartrate],,,,153.6 Å²,
CC(Cc1ccc(OCC(=O)O)cc1)NCC(O)c1csc(C(F)(F)F)n1 (stereo not drawn),184.7 Å²,181.1 Å²,181.4 Å²,181.2 Å²,
O=C(O)CC(O)C(=O)O (stereo not drawn) [Malic acid],116.9 Å²,,,,

Structure (SMILES),collision cross section in nitrogen [1],collision cross section in nitrogen [2],collision cross section in nitrogen [3],collision cross section in nitrogen [5],also measured
O=C(NCc1cccnc1)Nc1ccc([N+](=O)[O-])cc1 [N-(4-Nitrophenyl)-N'-(3-pyridinylmethyl)urea],165.3 Å²,174.7 Å²,174.3 Å²,,
CCc1cc(C2=C(C(=O)O)N(c3ccccc3C(F)(F)F)S(=O)(=O)c3ccccc32)cc2c1OCO2 [Fandosentan potassium salt],204.7 Å²,,,216.3 Å²,
COc1ccc(N)cc1 [4-Methoxybenzenamine],,120.3 Å²,133.2 Å²,,
OC(Cn1cncn1)(Cn1cncn1)c1ccc(F)cc1F [Fluconazole],,167.5 Å²,167.2 Å²,172 Å²,
N[C@@H](Cc1ccccc1)C(=O)O [L-Phenylalanine],140.8 Å²,,,,
Oc1ccccc1-c1ccccc1 [2-Phenylphenol],136.4 Å²,,,,
CC(C)(C)c1csc(-c2cc3cc(OCc4ccccc4CC(=O)O)ccc3o2)n1,,211.8 Å²,211.5 Å²,203.4 Å²,
CCN(Cc1cccc(S(=O)(=O)O)c1)c1ccc(C(=C2C=CC(=[N+](CC)Cc3cccc(S(=O)(=O)O)c3)C=C2)c2ccccc2S(=O)(=O)[O-])cc1 [FD&C Blue No. 1],257.6 Å²,,253.6 Å²,,
C[C@]12CC[C@@H]3c4ccc(O)cc4CC[C@H]3[C@@H]1CC[C@@H]2OC(=O)CCC1CCCC1 [Estradiol cypionate],220.4 Å²,,,,
CCCCc1nc(Cl)c(CO)n1Cc1ccc(-c2ccccc2-c2nnn[nH]2)cc1 [Losartan potassium],203.4 Å²,201.6 Å²,201.2 Å²,204.9 Å²,
CCCCCCCCCCCCCC[N+](C)(C)C [Myristyltrimethylammonium chloride],,,,,collision cross section in nitrogen [7]: 185.2 Å²; collision cross section in nitrogen [4]: 185.7 Å²
"Cc1ccc(C)c(S(=O)(=O)O)c1 [2,5-Dimethylbenzenesulfonic acid]",138.2 Å²,,,,
O=[N+]([O-])O [Ammonium nitrate],104.5 Å²,,,,
CC=Cc1ccc(OCc2ccccc2)c(OC)c1 [1-Benzyloxy-2-methoxy-4-(1-propenyl)benzene],,,,172.2 Å²,
CC(=O)Nc1ccc(N=Nc2c(S(=O)(=O)O)cc3cc(S(=O)(=O)O)cc(NC(C)=O)c3c2O)cc1 [C.I. Food Red 11],231.8 Å²,,,,
COC(=O)N(OC)c1ccccc1COc1ccn(-c2ccc(Cl)cc2)n1 [Pyraclostrobin],,184.5 Å²,183.8 Å²,195.5 Å²,
"O=C(CC(=O)c1ccccc1)c1ccccc1 [1,3-Diphenyl-1,3-propanedione]",154.4 Å²,,,165.9 Å²,
Cc1c(-c2cccnc2)c2ccccc2n1CCCCC(=O)O,183.7 Å²,176.6 Å²,176.7 Å²,,
CCNS(=O)(=O)C(F)(F)C(F)(F)C(F)(F)C(F)(F)C(F)(F)C(F)(F)C(F)(F)C(F)(F)F [N-Ethylperfluorooctane sulfonamide],180.4 Å²,,,,
"O=C1CCCC(=O)C1 [1,3-Cyclohexanedione]",121.3 Å²,,122.6 Å²,,

Structure (SMILES),collision cross section in nitrogen [1],collision cross section in nitrogen [2],collision cross section in nitrogen [3],collision cross section in nitrogen [5],also measured
CCCC(Cn1cncn1)c1ccc(Cl)cc1Cl (stereo not drawn) [Penconazole],,166.3 Å²,166.1 Å²,,
CNc1cccc2c1C(=O)c1ccccc1C2=O [1-(Methylamino)anthraquinone],,,151.6 Å²,,
CCOC(=O)c1ccc([C@H]2CC[C@H](NC[C@H](O)COc3ccc(O)c(NS(C)(=O)=O)c3)CC2)cc1,225.6 Å²,212.8 Å²,231.4 Å²,230.3 Å²,
Nc1c(S(=O)(=O)O)cc(Br)c2c1C(=O)c1ccccc1C2=O [Bromamine acid sodium salt],169.2 Å²,,,,
CCCCCCCCCCCCCCCC[N+](C)(C)Cc1ccccc1 [Benzalkonium chloride C16 (BAC C16)],,,,,collision cross section in nitrogen [7]: 208.9 Å²
Nc1cc2c3c(c1)C(c1ccccc1)=N[C@@H](NC(=O)c1cccnc1)C(=O)N3CC2,,201.2 Å²,200.1 Å²,209.2 Å²,
O=c1[nH]c2ccccc2n1C1CCN(CCCC(c2ccc(F)cc2)c2ccc(F)cc2)CC1 [Pimozide],215.8 Å²,211.9 Å²,211.8 Å²,217.6 Å²,
COc1ccc2nc(N)sc2c1 [6-Methoxy-2-benzothiazolamine],,136.6 Å²,136.6 Å²,,
O=C(COc1ccc(Cl)cc1)N1CCN(Cc2ccc3c(c2)OCO3)CC1 [Fipexide hydrochloride],,190.4 Å²,190.3 Å²,202.1 Å²,
CCCSP(=O)(OCC)SCCC [Ethoprop],,151.3 Å²,151.5 Å²,169.5 Å²,
N#CC(C#N)=NNc1cccc(Cl)c1 [Carbonyl cyanide chlorophenylhydrazone],,,142.8 Å²,,
"CC1=CP(=O)(c2ccccc2)CC1 (stereo not drawn) [2,3-Dihydro-4-methyl-1-phenyl-1H-phosphole 1-oxide]",,141.7 Å²,141.3 Å²,160.6 Å²,collision cross section in nitrogen [6]: 138 Å²
COc1cc(C=O)cc2c1[C@H](COC(N)=O)[C@]1(OC(C)=O)ON2C[C@H]2[C@@H]1N2C(C)=O,,191.3 Å²,192.1 Å²,190.5 Å²,
CCCCCCCCCCCCCCCCCC(=O)OCC(O)CO (stereo not drawn) [Glycerol 1-monostearate],,,,201.2 Å²,
C=CC(=O)OCC(COC(=O)C=C)(COC(=O)C=C)COC(=O)C=C [Pentaerythritol tetraacrylate],,,172.6 Å²,178.8 Å²,
CCCCCCCCCCCCCCCC[N+](C)(C)CC [Quaternium 17],,,,,collision cross section in nitrogen [7]: 196.1 Å²; collision cross section in nitrogen [4]: 197.2 Å²
CC(Cl)COP(=O)(OCC(C)Cl)OCC(C)Cl (stereo not drawn) [Tris(2-chloropropyl) phosphate],,,,171.4 Å²,
C=C(c1ccc(C(=O)O)cc1)c1cc2c(cc1C)C(C)(C)CCC2(C)C [Bexarotene],208.7 Å²,,,,
COc1cnc(OC)n2nc(NS(=O)(=O)c3c(OCC(F)F)cccc3C(F)(F)F)nc12 [Penoxsulam],193.3 Å²,196 Å²,195.6 Å²,198.5 Å²,
